Test results taken from USRE39181E1, “Aqueous risperidone formulations” (priority 1994, dated 2006).

Settings: room temperature

risperidone tartrate
solubility (aqueous media): about 80 mg/ml | solubility relative to risperidone hydrochloride: about 4 times
